Data as given in the supplement of paper PMC5844555.

Legend:
Experiment in all cases: 3' UTR reporter interaction score (median-centred robust z-score of log2 firefly/Renilla activity); higher = less repression of the 3' UTR reporter
Settings in all cases: HEK293T; 48 h
BRCA2 = tested on: BRCA2
Summary of the method: (§1)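 Firefly and Renilla luciferase activities were read 48 h post-transfection in HEK293T cells (10,000/well, 96-well plates). The cells had received 100 ng firefly luc2P reporter bearing the gene's 3' UTR, 20 ng Renilla pRL-TK control and 2.5 pmol miRNA mimic via DharmaFECT Duo. The interaction score, where more negative means interaction, is a per-plate robust z-score (median, median absolute deviation) of the log firefly/Renilla ratio, median-centred per miRNA and averaged over at least two independent screens.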

EZH2 = tested on: EZH2
Summary of the method: as §1

FBXW7 = tested on: FBXW7
Summary of the method: as §1

HRAS = tested on: HRAS
Summary of the method: as §1

MYB = tested on: MYB
Summary of the method: as §1

MYCN = tested on: MYCN
Summary of the method: as §1

MYC = tested on: MYC
Summary of the method: as §1

MYT1L = tested on: MYT1L
Summary of the method: as §1

NOTCH1 = tested on: NOTCH1
Summary of the method: as §1

PHF6 = tested on: PHF6
Summary of the method: as §1

PHOX2B = tested on: PHOX2B
Summary of the method: as §1

RB1 = tested on: RB1
Summary of the method: as §1

TP53 = tested on: TP53
Summary of the method: as §1

ZEB2 = tested on: ZEB2
Summary of the method: as §1

Row | Sequence | 3' UTR reporter interaction score (BRCA2) | 3' UTR reporter interaction score (EZH2) | 3' UTR reporter interaction score (FBXW7) | 3' UTR reporter interaction score (HRAS) | 3' UTR reporter interaction score (MYB) | 3' UTR reporter interaction score (MYCN) | 3' UTR reporter interaction score (MYC) | 3' UTR reporter interaction score (MYT1L) | 3' UTR reporter interaction score (NOTCH1) | 3' UTR reporter interaction score (PHF6) | 3' UTR reporter interaction score (PHOX2B) | 3' UTR reporter interaction score (RB1) | 3' UTR reporter interaction score (TP53) | 3' UTR reporter interaction score (ZEB2)
1 | GUUCAAAUCCAGAUCUAUAAC | 0.0735 | -0.256 | 1.03 | -0.14 | -0.548 | -0.012 | -0.205 | -0.972 | -0.33 | -0.553 | 1.14 | -0.538 | 0.149 | 0.383
2 | GUUCUCCCAACGUAAGCCCAGC | -0.8 | 0.22 | 1.08 | 0.00988 | -4.37 | 0.962 | -0.299 | 0.882 | -0.479 | 0.685 | 1.74 | -0.277 | 0.732 | -0.194
3 | GUUGGAGGAUGAAAGUACGGAGUGAU | -1.61 | 0.25 | 1.07 | -0.155 | 0.331 | 0.4 | -0.154 | -0.433 | -0.207 | 0.571 | 1.82 | 0.55 | -1.24 | 0.0694
4 | GUUGUGUCAGUUUAUCAAAC | -0.269 | 0.353 | -0.0228 | 0.822 | 0.442 | 0.0505 | 0.0323 | -0.86 | -0.822 | -1.91 | -0.364 | -1.51 | 0.224 | -0.154
5 | GUUUGCACGGGUGGGCCUUGUCU | 0.0623 | -0.233 | -0.619 | -1.1 | -0.536 | 1.09 | -0.328 | 2.21 | 0.297 | 0.29 | 0.0301 | -0.0813 | -0.225 | -1.23
6 | UAAACGUGGAUGUACUUGCUUU | 0.489 | 0.463 | 0.998 | -0.799 | -0.172 | -0.319 | -1.34 | -0.58 | 0.553 | -1.71 | -0.628 | 0.153 | 0.196 | 0.846
7 | UAAAGCUAGAUAACCGAAAGU | 1.05 | 0.346 | -0.801 | 0.407 | 0.558 | -1.46 | 0.416 | -1.97 | 1.01 | -0.609 | 0.965 | 0.722 | 0.374 | -0.694
8 | UAAAGUAAAUAUGCACCAAAA | -0.0915 | 0.367 | -0.197 | 0.372 | -0.21 | -0.59 | 0.043 | -0.0291 | 0.429 | -0.814 | 1.69 | -0.322 | 0.703 | -0.265
9 | UAAAGUGCUGACAGUGCAGAU | 0.319 | -0.906 | -0.356 | 0.312 | -0.631 | -0.735 | 0.528 | -2.37 | 0.373 | 0.442 | 0.0581 | -0.838 | -0.0101 | 0.619
